# Measured values from the supplement of paper PMC10307832.
# Columns and labels:
# Experiment in all cases: relative viability (nuclei count vs DMSO), 5 days (fraction); higher = more cells survive
# MK-2206 + Tozasertib = compound: NC1(c2ccc(-c3nc4ccn5c(=O)[nH]nc5c4cc3-c3ccccc3)cc2)CCC1 [MK-2206] + Cc1cc(Nc2cc(N3CCN(C)CC3)nc(Sc3ccc(NC(=O)C4CC4)cc3)n2)n[nH]1 [Tozasertib] (partner 0.1 µM)
# Outline: (§1)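 Cells from lung cancer lines were seeded into 1536-well plates and, one day later, dosed by pin tool. Treatments were either a single drug or a fixed dose of an anchor drug with five library-drug doses (not always all listed) in √10 steps. After 5 days, nuclei were stained in a one-step fixation (final 0.05% Triton X-100, 1% formaldehyde, 1 ug/ml Hoechst) and counted on 4× images, and relative viability is the treated-to-vehicle nuclei ratio, as the median of duplicate plates.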
# MK-2206 + Pictilisib = compound: NC1(c2ccc(-c3nc4ccn5c(=O)[nH]nc5c4cc3-c3ccccc3)cc2)CCC1 [MK-2206] + CS(=O)(=O)N1CCN(Cc2cc3nc(-c4cccc5[nH]ncc45)nc(N4CCOCC4)c3s2)CC1 [Pictilisib] (partner 1 µM)
# Outline: as §1
# Pictilisib + Olaparib = compound: CS(=O)(=O)N1CCN(Cc2cc3nc(-c4cccc5[nH]ncc45)nc(N4CCOCC4)c3s2)CC1 [Pictilisib] + O=C(c1cc(Cc2n[nH]c(=O)c3ccccc23)ccc1F)N1CCN(C(=O)C2CC2)CC1 [Olaparib] (partner 8 µM)
# Outline: as §1
# Pictilisib + Tozasertib = compound: CS(=O)(=O)N1CCN(Cc2cc3nc(-c4cccc5[nH]ncc45)nc(N4CCOCC4)c3s2)CC1 [Pictilisib] + Cc1cc(Nc2cc(N3CCN(C)CC3)nc(Sc3ccc(NC(=O)C4CC4)cc3)n2)n[nH]1 [Tozasertib] (partner 0.1 µM)
# Outline: as §1
# Pictilisib + Lapatinib = compound: CS(=O)(=O)N1CCN(Cc2cc3nc(-c4cccc5[nH]ncc45)nc(N4CCOCC4)c3s2)CC1 [Pictilisib] + CS(=O)(=O)CCNCc1ccc(-c2ccc3ncnc(Nc4ccc(OCc5cccc(F)c5)c(Cl)c4)c3c2)o1 [Lapatinib] (partner 2 µM)
# Outline: as §1
Cell Line,relative viability (MK-2206 + Tozasertib; first compound 0.01 µM),relative viability (MK-2206 + Tozasertib; first compound 0.03162 µM),relative viability (MK-2206 + Tozasertib; first compound 0.3162 µM),relative viability (MK-2206 + Tozasertib; first compound 1 µM),relative viability (MK-2206 + Pictilisib; first compound 0.01 µM),relative viability (MK-2206 + Pictilisib; first compound 0.03162 µM),relative viability (MK-2206 + Pictilisib; first compound 0.3162 µM),relative viability (MK-2206 + Pictilisib; first compound 1 µM),relative viability (Pictilisib + Olaparib; first compound 0.02 µM),relative viability (Pictilisib + Olaparib; first compound 0.06325 µM),relative viability (Pictilisib + Olaparib; first compound 0.6325 µM),relative viability (Pictilisib + Olaparib; first compound 2 µM),relative viability (Pictilisib + Tozasertib; first compound 0.02 µM),relative viability (Pictilisib + Tozasertib; first compound 0.06325 µM),relative viability (Pictilisib + Tozasertib; first compound 0.6325 µM),relative viability (Pictilisib + Tozasertib; first compound 2 µM),relative viability (Pictilisib + Lapatinib; first compound 0.02 µM),relative viability (Pictilisib + Lapatinib; first compound 0.06325 µM),relative viability (Pictilisib + Lapatinib; first compound 0.6325 µM),relative viability (Pictilisib + Lapatinib; first compound 2 µM)
LCLC-103H,0.495,0.609,0.516,0.477,0.642,0.688,0.54,0.701,0.722,0.851,0.701,0.475,0.636,0.456,0.339,0.26,–,–,–,–
HCC-44,0.993,1.1,1.03,0.98,0.804,0.619,0.496,0.392,1.02,1.06,1.12,0.915,0.952,0.922,0.629,0.279,0.86,0.977,1.06,0.674
RERF-LC-KJ,0.538,0.529,0.461,0.364,0.586,0.481,0.553,0.445,0.925,0.834,0.784,0.578,0.5,0.529,0.477,0.352,0.86,0.842,0.771,0.549
NCI-H1975,0.798,0.66,0.573,0.535,0.267,0.259,0.24,0.232,0.764,0.818,0.523,0.248,0.821,0.691,0.361,0.107,0.94,0.781,0.541,0.212
IA-LM,–,–,–,–,0.299,0.256,0.26,0.141,0.952,0.987,0.792,0.516,–,–,–,–,0.926,0.79,0.678,0.364
LCLC-97TM1,0.26,0.382,0.194,0.223,0.231,0.259,0.131,0.164,0.446,0.379,0.289,0.112,0.251,0.211,0.0992,0.0885,0.672,0.93,0.768,0.446
NCI-H520,0.405,0.543,0.254,0.367,0.275,0.228,0.276,0.223,0.387,0.323,0.186,0.118,0.413,0.412,0.234,0.232,0.834,0.864,0.365,0.164
A-427,0.218,0.197,0.191,0.207,0.766,0.676,0.732,0.717,0.721,0.712,0.71,0.552,0.202,0.187,0.19,0.145,0.98,1.09,1,0.932
